{"source": "paper PMC6009956", "about": "“Design, synthesis and biological activity of N^4-phenylsubstituted-7H-pyrrolo[2,3-d]pyrimidin-4-amines as dual inhibitors of aurora kinase A and epidermal growth factor receptor kinase” (Journal of Enzyme Inhibition and Medicinal Chemistry, 2017)", "key": {"aurora A kinase (AURKA)": {"biological_target": "T1, aurora A kinase (AURKA) (Homo sapiens, UniProt O14965)", "T1 construct": "purchased BPS Bioscience (assay run externally by the vendor)", "T1 sequence (O14965 1-403)": "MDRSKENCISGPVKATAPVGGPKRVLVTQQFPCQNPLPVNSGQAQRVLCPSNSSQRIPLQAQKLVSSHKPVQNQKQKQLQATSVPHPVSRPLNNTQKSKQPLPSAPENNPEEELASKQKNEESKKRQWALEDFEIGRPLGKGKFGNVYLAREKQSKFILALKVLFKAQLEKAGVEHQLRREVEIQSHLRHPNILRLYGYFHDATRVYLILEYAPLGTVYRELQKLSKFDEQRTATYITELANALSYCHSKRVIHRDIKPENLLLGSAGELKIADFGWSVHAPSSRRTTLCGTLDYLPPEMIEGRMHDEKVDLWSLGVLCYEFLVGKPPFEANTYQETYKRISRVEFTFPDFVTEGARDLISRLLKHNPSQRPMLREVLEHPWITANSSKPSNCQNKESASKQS", "assay": "ADP-Glo kinase assay, Aurora A", "assay_type": "biochemical"}, "EGFR": {"biological_target": "EGFR (Homo sapiens, UniProt P00533)", "sequence (P00533 25-1210)": "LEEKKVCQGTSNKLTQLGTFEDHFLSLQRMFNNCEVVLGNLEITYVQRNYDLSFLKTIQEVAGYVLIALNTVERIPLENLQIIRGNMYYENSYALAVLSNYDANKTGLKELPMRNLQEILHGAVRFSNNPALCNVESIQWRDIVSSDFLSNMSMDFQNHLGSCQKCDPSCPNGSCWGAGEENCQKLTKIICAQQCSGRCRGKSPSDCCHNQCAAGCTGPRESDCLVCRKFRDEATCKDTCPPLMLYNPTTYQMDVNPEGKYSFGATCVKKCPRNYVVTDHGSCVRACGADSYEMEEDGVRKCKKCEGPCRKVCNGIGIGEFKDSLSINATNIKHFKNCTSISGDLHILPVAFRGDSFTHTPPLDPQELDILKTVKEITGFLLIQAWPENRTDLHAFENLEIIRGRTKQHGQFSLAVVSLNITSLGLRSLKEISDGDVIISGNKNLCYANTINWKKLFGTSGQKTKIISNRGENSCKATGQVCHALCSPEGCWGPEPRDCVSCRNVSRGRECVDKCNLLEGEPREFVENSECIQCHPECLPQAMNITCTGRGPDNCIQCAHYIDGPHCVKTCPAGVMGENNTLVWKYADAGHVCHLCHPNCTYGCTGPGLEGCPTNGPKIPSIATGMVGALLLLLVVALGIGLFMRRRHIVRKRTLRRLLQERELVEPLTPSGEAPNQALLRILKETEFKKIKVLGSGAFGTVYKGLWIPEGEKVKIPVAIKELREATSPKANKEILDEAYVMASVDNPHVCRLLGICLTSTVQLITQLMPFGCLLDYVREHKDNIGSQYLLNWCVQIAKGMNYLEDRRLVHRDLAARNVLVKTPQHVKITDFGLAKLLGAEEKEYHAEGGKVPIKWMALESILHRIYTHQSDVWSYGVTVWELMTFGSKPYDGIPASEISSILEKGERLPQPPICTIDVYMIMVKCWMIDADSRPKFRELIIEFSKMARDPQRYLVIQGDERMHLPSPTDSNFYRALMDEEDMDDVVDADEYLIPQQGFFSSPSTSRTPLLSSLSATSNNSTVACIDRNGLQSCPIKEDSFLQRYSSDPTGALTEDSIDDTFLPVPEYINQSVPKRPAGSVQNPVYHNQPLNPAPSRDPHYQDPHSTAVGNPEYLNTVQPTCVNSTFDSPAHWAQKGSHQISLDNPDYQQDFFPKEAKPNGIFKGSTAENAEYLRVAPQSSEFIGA", "assay": "ADP-Glo kinase assay, EGFR", "assay_type": "biochemical", "set-up": "purchased BPS Bioscience (assay run externally by the vendor)"}}, "note": "Like-named read-outs stand apart in the source and are kept apart here."}
{"smiles": "FC(F)(F)c1cccc(Nc2ncnc3[nH]ccc23)c1", "note": "[Compound 13, N^4-(3-trifluoromethylphenyl)-7H-pyrrolo[2,3-d]pyrimidin-4-amine]", "values": [{"measurement": "IC50", "setting": "aurora A kinase (AURKA); 10 µM ATP, triplicate, read-out: AURKA IC50 ± SD", "result": "5.78 ± 0.43", "unit": "µM"}, {"measurement": "IC50", "setting": "aurora A kinase (AURKA); 10 µM ATP/0.2 mg/ml Kemptide, read-out: Aurora A IC50 (dose-response curve, supplement)", "result": 5.8, "unit": "µM"}, {"measurement": "Aurora A % Activity Set1", "setting": "aurora A kinase (AURKA); Log[nM] 0", "result": 94, "unit": "%"}, {"measurement": "Aurora A % Activity Set2", "setting": "aurora A kinase (AURKA); Log[nM] 0", "result": 101, "unit": "%"}, {"measurement": "Aurora A % Activity Set3", "setting": "aurora A kinase (AURKA); Log[nM] 0", "result": 96, "unit": "%"}, {"measurement": "Aurora A % Activity Set1", "setting": "aurora A kinase (AURKA); Log[nM] 1.0", "result": 103, "unit": "%"}, {"measurement": "Aurora A % Activity Set2", "setting": "aurora A kinase (AURKA); Log[nM] 1.0", "result": 101, "unit": "%"}, {"measurement": "Aurora A % Activity Set3", "setting": "aurora A kinase (AURKA); Log[nM] 1.0", "result": 106, "unit": "%"}, {"measurement": "Aurora A % Activity Set1", "setting": "aurora A kinase (AURKA); Log[nM] 1.5", "result": 107, "unit": "%"}, {"measurement": "Aurora A % Activity Set2", "setting": "aurora A kinase (AURKA); Log[nM] 1.5", "result": 113, "unit": "%"}, {"measurement": "Aurora A % Activity Set3", "setting": "aurora A kinase (AURKA); Log[nM] 1.5", "result": 119, "unit": "%"}, {"measurement": "Aurora A % Activity Set1", "setting": "aurora A kinase (AURKA); Log[nM] 2.0", "result": 110, "unit": "%"}, {"measurement": "Aurora A % Activity Set2", "setting": "aurora A kinase (AURKA); Log[nM] 2.0", "result": 108, "unit": "%"}, {"measurement": "Aurora A % Activity Set3", "setting": "aurora A kinase (AURKA); Log[nM] 2.0", "result": 113, "unit": "%"}, {"measurement": "Aurora A % Activity Set1", "setting": "aurora A kinase (AURKA); Log[nM] 2.5", "result": 108, "unit": "%"}, {"measurement": "Aurora A % Activity Set2", "setting": "aurora A kinase (AURKA); Log[nM] 2.5", "result": 108, "unit": "%"}, {"measurement": "Aurora A % Activity Set3", "setting": "aurora A kinase (AURKA); Log[nM] 2.5", "result": 112, "unit": "%"}, {"measurement": "Aurora A % Activity Set1", "setting": "aurora A kinase (AURKA); Log[nM] 3.0", "result": 94, "unit": "%"}, {"measurement": "Aurora A % Activity Set2", "setting": "aurora A kinase (AURKA); Log[nM] 3.0", "result": 100, "unit": "%"}, {"measurement": "Aurora A % Activity Set3", "setting": "aurora A kinase (AURKA); Log[nM] 3.0", "result": 94, "unit": "%"}, {"measurement": "Aurora A % Activity Set1", "setting": "aurora A kinase (AURKA); Log[nM] 3.5", "result": 73, "unit": "%"}, {"measurement": "Aurora A % Activity Set2", "setting": "aurora A kinase (AURKA); Log[nM] 3.5", "result": 63, "unit": "%"}, {"measurement": "Aurora A % Activity Set3", "setting": "aurora A kinase (AURKA); Log[nM] 3.5", "result": 72, "unit": "%"}, {"measurement": "Aurora A % Activity Set1", "setting": "aurora A kinase (AURKA); Log[nM] 4.0", "result": 32, "unit": "%"}, {"measurement": "Aurora A % Activity Set2", "setting": "aurora A kinase (AURKA); Log[nM] 4.0", "result": 26, "unit": "%"}, {"measurement": "Aurora A % Activity Set3", "setting": "aurora A kinase (AURKA); Log[nM] 4.0", "result": 28, "unit": "%"}, {"measurement": "Aurora A % Activity Set1", "setting": "aurora A kinase (AURKA); Log[nM] 4.5", "result": 13, "unit": "%"}, {"measurement": "Aurora A % Activity Set2", "setting": "aurora A kinase (AURKA); Log[nM] 4.5", "result": 10, "unit": "%"}, {"measurement": "Aurora A % Activity Set3", "setting": "aurora A kinase (AURKA); Log[nM] 4.5", "result": 11, "unit": "%"}, {"measurement": "Aurora A % Activity Set1", "setting": "aurora A kinase (AURKA); Log[nM] 5.0", "result": 14, "unit": "%"}, {"measurement": "Aurora A % Activity Set2", "setting": "aurora A kinase (AURKA); Log[nM] 5.0", "result": 11, "unit": "%"}, {"measurement": "Aurora A % Activity Set3", "setting": "aurora A kinase (AURKA); Log[nM] 5.0", "result": 13, "unit": "%"}, {"measurement": "IC50", "setting": "EGFR; 10 µM ATP, triplicate, cell without unit, read-out: EGFR IC50 ± SD", "result": "43.6 ± 7.77", "unit": "nM"}, {"measurement": "IC50", "setting": "EGFR; 10 µM ATP/0.2 mg/ml Poly-Glu-Tyr, read-out: EGFR IC50 (dose-response curve, supplement)", "result": 43.9, "unit": "nM"}, {"measurement": "EGFR % Activity Set1", "setting": "EGFR; Log[nM] 0", "result": 91, "unit": "%"}, {"measurement": "EGFR % Activity Set2", "setting": "EGFR; Log[nM] 0", "result": 92, "unit": "%"}, {"measurement": "EGFR % Activity Set3", "setting": "EGFR; Log[nM] 0", "result": 91, "unit": "%"}, {"measurement": "EGFR % Activity Set1", "setting": "EGFR; Log[nM] 1.0", "result": 66, "unit": "%"}, {"measurement": "EGFR % Activity Set2", "setting": "EGFR; Log[nM] 1.0", "result": 76, "unit": "%"}, {"measurement": "EGFR % Activity Set3", "setting": "EGFR; Log[nM] 1.0", "result": 95, "unit": "%"}, {"measurement": "EGFR % Activity Set1", "setting": "EGFR; Log[nM] 1.5", "result": 54, "unit": "%"}, {"measurement": "EGFR % Activity Set2", "setting": "EGFR; Log[nM] 1.5", "result": 61, "unit": "%"}, {"measurement": "EGFR % Activity Set3", "setting": "EGFR; Log[nM] 1.5", "result": 56, "unit": "%"}, {"measurement": "EGFR % Activity Set1", "setting": "EGFR; Log[nM] 2.0", "result": 29, "unit": "%"}, {"measurement": "EGFR % Activity Set2", "setting": "EGFR; Log[nM] 2.0", "result": 30, "unit": "%"}, {"measurement": "EGFR % Activity Set3", "setting": "EGFR; Log[nM] 2.0", "result": 32, "unit": "%"}, {"measurement": "EGFR % Activity Set1", "setting": "EGFR; Log[nM] 2.5", "result": 17, "unit": "%"}, {"measurement": "EGFR % Activity Set2", "setting": "EGFR; Log[nM] 2.5", "result": 19, "unit": "%"}, {"measurement": "EGFR % Activity Set3", "setting": "EGFR; Log[nM] 2.5", "result": 15, "unit": "%"}, {"measurement": "EGFR % Activity Set1", "setting": "EGFR; Log[nM] 3.0", "result": 8, "unit": "%"}, {"measurement": "EGFR % Activity Set2", "setting": "EGFR; Log[nM] 3.0", "result": 8, "unit": "%"}, {"measurement": "EGFR % Activity Set3", "setting": "EGFR; Log[nM] 3.0", "result": 6, "unit": "%"}, {"measurement": "EGFR % Activity Set1", "setting": "EGFR; Log[nM] 3.5", "result": 3, "unit": "%"}, {"measurement": "EGFR % Activity Set2", "setting": "EGFR; Log[nM] 3.5", "result": 4, "unit": "%"}, {"measurement": "EGFR % Activity Set3", "setting": "EGFR; Log[nM] 3.5", "result": 3, "unit": "%"}, {"measurement": "EGFR % Activity Set1", "setting": "EGFR; Log[nM] 4.0", "result": 0, "unit": "%"}, {"measurement": "EGFR % Activity Set2", "setting": "EGFR; Log[nM] 4.0", "result": 1, "unit": "%"}, {"measurement": "EGFR % Activity Set3", "setting": "EGFR; Log[nM] 4.0", "result": 1, "unit": "%"}, {"measurement": "EGFR % Activity Set1", "setting": "EGFR; Log[nM] 4.5", "result": 0, "unit": "%"}, {"measurement": "EGFR % Activity Set2", "setting": "EGFR; Log[nM] 4.5", "result": 1, "unit": "%"}, {"measurement": "EGFR % Activity Set3", "setting": "EGFR; Log[nM] 4.5", "result": 0, "unit": "%"}, {"measurement": "EGFR % Activity Set1", "setting": "EGFR; Log[nM] 5.0", "result": 0, "unit": "%"}, {"measurement": "EGFR % Activity Set2", "setting": "EGFR; Log[nM] 5.0", "result": 0, "unit": "%"}, {"measurement": "EGFR % Activity Set3", "setting": "EGFR; Log[nM] 5.0", "result": 1, "unit": "%"}]}
